Measurements: BindingDB's records for doi:10.1016/j.bmcl.2003.11.012 (Novo Nordisk, 2003)

What follows are compounds tested against Growth hormone secretagogue receptor type 1 (Homo sapiens, UniProt Q92847) (assay: ChEBML_72507).
Description: Inhibition of ghrelin binding to Growth hormone secretagogue receptor expressed in BHK cells

Growth hormone secretagogue receptor type 1, sequence (Q92847 whole entry): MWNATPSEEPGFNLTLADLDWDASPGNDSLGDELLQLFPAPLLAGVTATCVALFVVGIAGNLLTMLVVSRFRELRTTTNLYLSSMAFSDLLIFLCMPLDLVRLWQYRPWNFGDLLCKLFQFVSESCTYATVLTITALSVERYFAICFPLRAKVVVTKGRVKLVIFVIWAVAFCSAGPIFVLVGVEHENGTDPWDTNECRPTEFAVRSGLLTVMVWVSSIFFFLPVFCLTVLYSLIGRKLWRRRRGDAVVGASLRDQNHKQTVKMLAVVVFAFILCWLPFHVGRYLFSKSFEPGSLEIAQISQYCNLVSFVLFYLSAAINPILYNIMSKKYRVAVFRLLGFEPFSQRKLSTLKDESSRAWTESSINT

| Compound | IC50 [µM] |
| --- | --- |
| CN(C)CCCn1c(O)c(Cc2ccccc2)n(Cc2ccc(-c3ccccc3-c3nnn[nH]3)cc2)c1=S [(S)-5-Benzyl-3-(3-dimethylamino-propyl)-1-[2'-(2H-tetrazol-5-yl)-biphenyl-4-ylmethyl]-2-thioxo-imidazolidin-4-one] | 35 |
| NCCCn1c(O)c(CCc2ccccc2)n(Cc2ccc(-c3ccccc3-c3nnn[nH]3)cc2)c1=O [(S)-3-(3-Amino-propyl)-5-phenethyl-1-[2'-(2H-tetrazol-5-yl)-biphenyl-4-ylmethyl]-imidazolidine-2,4-dione] | > 100 |
| CN(C)c1ccc(-n2c(O)c(CCc3ccccc3)n(Cc3ccc(-c4ccccc4-c4nnn[nH]4)cc3)c2=S)cc1 [(S)-3-(4-Dimethylamino-phenyl)-5-phenethyl-1-[2'-(2H-tetrazol-5-yl)-biphenyl-4-ylmethyl]-2-thioxo-imidazolidin-4-one] | > 100 |

The next lines start with the values.

| IC50 [µM] | Compound |
| --- | --- |
| 35 | CN(C)CCCn1c(O)c(-c2ccccc2)n(Cc2ccc(-c3ccccc3-c3nnn[nH]3)cc2)c1=S [(S)-3-(3-Dimethylamino-propyl)-5-phenyl-1-[2'-(2H-tetrazol-5-yl)-biphenyl-4-ylmethyl]-2-thioxo-imidazolidin-4-one] |
| > 100 | CN(C)C(=O)CCn1c(O)c(CCc2ccccc2)n(Cc2ccc(-c3ccccc3-c3nnn[nH]3)cc2)c1=O [3-{(S)-2,5-Dioxo-4-phenethyl-3-[2'-(2H-tetrazol-5-yl)-biphenyl-4-ylmethyl]-imidazolidin-1-yl}-N,N-dimethyl-propionamide] |
